Measurements from patent publication US6653486B2, “Spiroorthocarbonates containing epoxy groups” (Curators of the University of Missouri, priority 1999, dated 2003).

Experiments:
[1] = Vinyl ether homopolymerization PDSC with and without EDMAB (Table 2)
Source text: For the experiments reported in Table 2, the photopolymerization of various vinyl ethers with and without the use of an electron donor to promote the reaction are reported. Data showing runs where EDMAB was used to promote the reaction are shown in parentheses after the numbers corresponding to runs without EDMAB.

melting point [°C]	Compound	Rate Constant k ([1]; with EDMAB) [min⁻¹]	Rate Constant k ([1]; without EDMAB) [min⁻¹]
	C=COCCOCCOC=C [DEGDVE, di(ethylene glycol)divinyl ether]	1.4	1.3
	C=COCC1CO1 (stereo not shown) [GVE, glycidyl vinyl ether]	0.8	1.1
68.1	CCC(=O)OCC1(CC)COC2(OC1)OCC(CC)(COC(=O)CC)CO2 (stereo not shown) [DEDPM, 3,9-Diethyl-3,9-dipropionyloxymethyl-1,5,7,11-tetraoxaspiro[5.5]undecane]		
	C=COCCOCCOCCOC=C [TEGDVE, tri(ethylene glycol)divinyl ether]	11.1	2.1
122.4	FC(F)(F)C1CCOC2(OCCC(C(F)(F)F)O2)O1 (stereo not shown) [DTFM, 2,8-Ditrifluoromethyl-1,5,7,11-tetraoxaspiro[5.5]undecane]		
	C=COCCOC=C [EGDVE, ethylene glycol divinyl ether]	10.6	3.6
	C=COCC1CCC(COC=C)CC1 (stereo not shown) [CHDMDVE, 1,4-cyclohexanedimethanol divinyl ether]	2.8	0.5
	C=COCCCCO [BDVE, butanediol vinyl ether]	3.6	1.1
	hexanediol divinyl ether [HDDVE]	15.5	1.4
